These results are taken from US20020082261A1, “PROPHYLACTIC OR THERAPEUTIC AGENTS FOR DISEASES HAIVNG VASCULAR DYSFUNCTION ASSOCIATED WITH INSULIN RESISTANCE” (priority 1998, published 2002).

Structures can show the parent of a compound that is named as a salt.

For one series, the system named is rats. The experiment in a line: Acute toxicity via oral route in rats. The series is classed as in vivo.
Series [1] concerns superoxide anion (O2−) production level in thoracic aorta tissue sections. Put plainly: Superoxide anion (O2−) production level in thoracic aorta tissue sections, lucigenin-enhanced chemiluminescence, after 8 weeks oral dosing. Conditions: endothelium-separated sections EC (−), comparison among the 4 groups (CTR, CTR+BH4, FR, FR+BH4). It is filed as in vivo, Male Sprague-Dawley rats. On the procedure:
Male Sprague-Dawley rats (150 g, supplied from Charles River) were used to prepare a model group with insulin resistance induced by fructose feed loading (hereinafter referred to as “FR group”) according to the procedure described by Hwang et al. (Hwang, I-H. et al., Hypertension 10:512, 1987). A control group grown with a starch feed (hereinafter referred to as “CTR group”) was also prepared (FR group: n=16; CTR group: n=16). FR group received a feed containing 67% (hereinafter meaning % by weight) carbohydrate (containing 98% fructose available from Oriental Yeast Co., Ltd.), 13% fat and 20% protein, while CTR group received a feed containing 58% carbohydrate, 12% fat and […]. […] After 8 weeks, the thoracic aorta was collected. For each group, endothelium-separated sections (EC (−)) and non-separated sections (EC (+)) were prepared and examined for superoxide anion (O2^−) production level, endothelial NOS (eNOS) activity and endothelium-dependent vasorelaxation.
Group-to-group statistic analyses were made by one-way ANOVA, with the significance level being p<0.05. Multiple comparison was made by Bonferronl/Dunn, with the significance level being p<0.05.
Measurement of O2^−production level was made by the lucigenin-enhanced chemiluminescence method (Ohara et al., J. Clin. Invest. 91: 2546, 1993).

The conditions of series [2]: as reported in Japanese Patent Public Disclosure No. 25323/84; cited from earlier work.

As to `C[C@H](O)[C@H](O)[C@H]1CNc2nc(N)[nH]c(=O)c2N1` [BH4 dihydrochloride, (6R)-L-erythro-5,6,7,8-tetrahydrobiopterin], the acute toxicity with rats is recorded as ≥ 2 g/kg (body weight). Regarding `C[C@H](O)[C@H](O)[C@H]1CNc2nc(N)[nH]c(=O)c2N1` [BH4, (6R)-L-erythro-5,6,7,8-tetrahydrobiopterin], in series [1], the “O2− production level in EC (−)” value is on record as “No significant difference”. Take `C[C@H](O)[C@H](O)C1CNc2nc(N)[nH]c(=O)c2N1` (stereo partly drawn) [(6R,S)-5,6,7,8-tetrahydrobiopterin]: the toxicity entry in series [2] is reported as “only slightly toxic”.
